Assay results taken from patent US20070031511A1, “Method of treatment” (priority 2003, published 2007).

Tests used:
Ggly receptor = test: [125I]-Ggly binding to the Ggly receptor on IMGE-5 cells; set-up: species or system mice
Protocol: [^125I]-Ggly binding assays were carried out by previously described methods (Yang et al, 2001). Briefly, 5×10^5 IMGE-5 cells/well were seeded in 6-well plates and grown at 33° C. for 24 hours. The cells were then serum starved and shifted to 39° C. for 24 h. […] Cells were then washed three times in ice-cold PBS and lysed with 1 M NaOH, and the amount of radioactivity bound was measured in a γ-counter.

IMGE-5 cells = test: IMGE-5 cell proliferation, [3H]-thymidine incorporation; format: cell-based, mice; details: IMGE cells, thymidine uptake; best fit at saturating concentration
Protocol: In some cases cell proliferation was also measured by [^3H]-thymidine incorporation as described previously (Oiry et al., 2000). Briefly, IMGE-5 cells (10^5/well) were seeded in 24-well plates in medium containing 10% FBS and 1 unit/ml γ-interferon. On the next day cells were serum starved and shifted to 39° C. for 24 hr. Cells were then incubated with or without various compounds at 39° C. for 17 h in medium supplemented with 0.2% bovine serum albumin only. Cells were incubated with 0.5 μCi of [^3H] thymidine in the same medium at 39° C. for 4 h, washed twice with PBS (2.7 mM KCl, 142 mM NaCl, 1.5 mM KH2PO4, 10 mM Na2HPO4, pH 6.95) containing 0.2% bovine serum albumin and incubated at 4° C. for 30 min with 5% trichloroacetic acid. Finally cells were washed with 95% ethanol to remove unincorporated [^3H] thymidine, and lysed with 1 M NaOH. Lysates were transferred to counting vials and neutralized with 1M HCl. The radioactivity of each lysate was counted in a β-counter after the addition of 10 ml of Pico-fluor 40 solution (Packard, Meriden, Conn.).
In some experiments IMGE-5 cells were seeded in a 96-well plate at a density of 3-5×10^3 cells/well in.DMEM containing 10% FBS, and cultured at 33° C.. On the following day, the cells were serum-starved at 33° C. for 24 h. […] The cells were cultured at 39° C. for 24 h, and then harvested using a NUNC cell harvester. The amount of ^3H-thymidine incorporated through DNA synthesis was detected with a β-counter (Packard, Meriden, Conn.). […]

Compound	Inhibition of [125I]-Ggly binding (Ggly receptor; 2 moles Bi3+/mole Ggly) [%]	Inhibition of [125I]-Ggly binding (Ggly receptor; 8 or 32 moles Bi3+/mole Ggly)	S (%), maximum % stimulation (IMGE-5 cells) [%]
[Bi+3] [bismuth ions]	50	complete inhibition	–
Ggly: glycine-extended gastrin17, 18 amino acid non-amidated gastrin, SEQ ID NO:4, residues 55-72 of progastrin (XGPWLEEEEEAYGWMDFG; (1)..(1) pyroglutamate; listed as Homo sapiens)	–	–	37.3
